Measured values reported in ChEMBL document CHEMBL3885861, “Open TG-GATES”.

Species on record: Rattus norvegicus
Assay: Open TG-GATES - Regimen: Single
Format: toxicity, organism-based, Sprague-Dawley
Set-up: regimen Single, gender Male, age 6 weeks
Conditions: in vivo, po, 0 mg/kg, route gavage, dose level Control; for APTT / Bas / Eos / Fbg / Hb / Ht / Lym / MCH / MCHC / MCV / Mono / Neu / PT / Plat / RBC / Ret / WBC: tissue Blood; for KIDNEY_L / KIDNEY_R / KIDNEY_TOTAL: tissue Kidney; for LIVER: tissue Liver; for A/G / ALP / ALT / AST / BUN / CRE / Ca / Cl / DBIL / GLC / IP / K / LDH / Na / PL / RALB / TBIL / TC / TG / TP / gamma-GTP: tissue Plasma

CN(C)[C@@H]1C(O)=C(C(N)=O)C(=O)[C@@]2(O)C(O)=C3C(=O)c4c(O)cccc4[C@@](C)(O)[C@H]3C[C@@H]12 [TETRACYCLINE]
TERMINAL_BW (3 h): 187 g
APTT (3 h): 16.4 s
Bas (3 h): 0%
Eos (3 h): 0.6%
Fbg (3 h): 206.2 mg/dL
Hb (3 h): 13.1 g/dL
Ht (3 h): 39.4%
Lym (3 h): 78.4%
MCH (3 h): 22 pg
MCHC (3 h): 33.1%
MCV (3 h): 66.3 fL
Mono (3 h): 8.6%
Neu (3 h): 12.8%
PT (3 h): 12.1 s
Plat (3 h): 105.5 x10_4/uL
RBC (3 h): 595.2 x10_4/ul
Ret (3 h): 11%
WBC (3 h): 95.1 x10_2/uL
KIDNEY_L (3 h): 0.9 g
KIDNEY_R (3 h): 0.9 g
KIDNEY_TOTAL (3 h): 1.8 g
LIVER (3 h): 9 g
A/G (3 h): 2.2
ALP (3 h): 813 IU/L
ALT (3 h): 35.8 IU/L
AST (3 h): 70.8 IU/L
BUN (3 h): 12.6 mg/dL
CRE (3 h): 0.5 mg/dL
Ca (3 h): 11.1 mg/dL
Cl (3 h): 103.6 meq/L
DBIL (3 h): 0.02 mg/dL
GLC (3 h): 187.8 mg/dL
IP (3 h): 10.2 mg/dL
K (3 h): 5.2 meq/L
LDH (3 h): 87.6 IU/L
Na (3 h): 137.6 meq/L
PL (3 h): 143.2 mg/dL
RALB (3 h): 3.7 g/dL
TBIL (3 h): 0.4 mg/dL
TC (3 h): 84 mg/dL
TG (3 h): 42.4 mg/dL
TP (3 h): 5.4 g/dL
gamma-GTP (3 h): 1.4 IU/L
TERMINAL_BW (6 h): 181.3 g
APTT (6 h): 16.7 s
Bas (6 h): 0%
Eos (6 h): 0.8%
Fbg (6 h): 200.2 mg/dL
Hb (6 h): 13.1 g/dL
Ht (6 h): 39.1%
Lym (6 h): 81.6%
MCH (6 h): 22 pg
MCHC (6 h): 33.4%
MCV (6 h): 65.9 fL
Mono (6 h): 5.2%
Neu (6 h): 13%
PT (6 h): 12.3 s
Plat (6 h): 101.8 x10_4/uL
RBC (6 h): 593.8 x10_4/ul
Ret (6 h): 10.7%
WBC (6 h): 118.1 x10_2/uL
KIDNEY_L (6 h): 0.8 g
KIDNEY_R (6 h): 0.8 g
KIDNEY_TOTAL (6 h): 1.7 g
LIVER (6 h): 8.3 g
A/G (6 h): 2.2
ALP (6 h): 900.4 IU/L
ALT (6 h): 36.2 IU/L
AST (6 h): 68.8 IU/L
BUN (6 h): 9 mg/dL
CRE (6 h): 0.4 mg/dL
Ca (6 h): 10.6 mg/dL
Cl (6 h): 105.2 meq/L
DBIL (6 h): 0.018 mg/dL
GLC (6 h): 180 mg/dL
IP (6 h): 10.5 mg/dL
K (6 h): 5.2 meq/L
LDH (6 h): 77.6 IU/L
Na (6 h): 136.4 meq/L
PL (6 h): 130.4 mg/dL
RALB (6 h): 3.7 g/dL
TBIL (6 h): 0.3 mg/dL
TC (6 h): 76 mg/dL
TG (6 h): 36 mg/dL
TP (6 h): 5.3 g/dL
gamma-GTP (6 h): 1.2 IU/L
TERMINAL_BW (9 h): 179.4 g
APTT (9 h): 16.9 s
Bas (9 h): 0%
Eos (9 h): 0.6%
Fbg (9 h): 211.6 mg/dL
Hb (9 h): 13.3 g/dL
Ht (9 h): 40.3%
Lym (9 h): 78%
MCH (9 h): 21.7 pg
MCHC (9 h): 33%
MCV (9 h): 65.7 fL
Mono (9 h): 6.2%
Neu (9 h): 15.4%
PT (9 h): 12.8 s
Plat (9 h): 98.9 x10_4/uL
RBC (9 h): 613.2 x10_4/ul
Ret (9 h): 9.1%
WBC (9 h): 72 x10_2/uL
KIDNEY_L (9 h): 0.9 g
KIDNEY_R (9 h): 0.9 g
KIDNEY_TOTAL (9 h): 1.8 g
LIVER (9 h): 7.5 g
A/G (9 h): 2.3
ALP (9 h): 844.2 IU/L
ALT (9 h): 32.6 IU/L
AST (9 h): 64.2 IU/L
BUN (9 h): 10.6 mg/dL
CRE (9 h): 0.4 mg/dL
Ca (9 h): 10.4 mg/dL
Cl (9 h): 106.2 meq/L
DBIL (9 h): 0.024 mg/dL
GLC (9 h): 176.4 mg/dL
IP (9 h): 10.6 mg/dL
K (9 h): 5.3 meq/L
LDH (9 h): 81.2 IU/L
Na (9 h): 138.8 meq/L
PL (9 h): 123.6 mg/dL
RALB (9 h): 3.8 g/dL
TBIL (9 h): 0.3 mg/dL
TC (9 h): 71.2 mg/dL
TG (9 h): 23.6 mg/dL
TP (9 h): 5.5 g/dL
gamma-GTP (9 h): 1.4 IU/L
TERMINAL_BW (24 h): 200.1 g
APTT (24 h): 16.6 s
Bas (24 h): 0%
Eos (24 h): 0.8%
Fbg (24 h): 205.2 mg/dL
Hb (24 h): 13.2 g/dL
Ht (24 h): 39.7%
Lym (24 h): 76.6%
MCH (24 h): 22.1 pg
MCHC (24 h): 33.2%
MCV (24 h): 66.7 fL
Mono (24 h): 8.2%
Neu (24 h): 14.8%
PT (24 h): 11.9 s
Plat (24 h): 112.5 x10_4/uL
RBC (24 h): 596.4 x10_4/ul
Ret (24 h): 9.8%
WBC (24 h): 81.9 x10_2/uL
KIDNEY_L (24 h): 0.9 g
KIDNEY_R (24 h): 0.9 g
KIDNEY_TOTAL (24 h): 1.8 g
LIVER (24 h): 10.2 g
A/G (24 h): 2.3
ALP (24 h): 1007 IU/L
ALT (24 h): 45.4 IU/L
AST (24 h): 76.6 IU/L
BUN (24 h): 17.4 mg/dL
CRE (24 h): 0.5 mg/dL
Ca (24 h): 11.1 mg/dL
Cl (24 h): 105.2 meq/L
DBIL (24 h): 0.008 mg/dL
GLC (24 h): 188.6 mg/dL
IP (24 h): 9 mg/dL
K (24 h): 4.9 meq/L
LDH (24 h): 87.6 IU/L
Na (24 h): 140.2 meq/L
PL (24 h): 155 mg/dL
RALB (24 h): 3.9 g/dL
TBIL (24 h): 0.4 mg/dL
TC (24 h): 84.2 mg/dL
TG (24 h): 69.2 mg/dL
TP (24 h): 5.7 g/dL
gamma-GTP (24 h): 0.8 IU/L
